Reference: ChEMBL document CHEMBL1201862, “PubChem BioAssay data set” (2004)
Activity calls are given as the source filed them.

Assays:
Coagulation factor XII = molecular target: T1, Coagulation factor XII (Homo sapiens, UniProt P00748); type: functional;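 also: activated factor XIIa alpha cleaving a fluorogenic AMC peptide substrate; inhibitor potency from loss of enzyme activity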
T1 sequence (P00748 whole entry): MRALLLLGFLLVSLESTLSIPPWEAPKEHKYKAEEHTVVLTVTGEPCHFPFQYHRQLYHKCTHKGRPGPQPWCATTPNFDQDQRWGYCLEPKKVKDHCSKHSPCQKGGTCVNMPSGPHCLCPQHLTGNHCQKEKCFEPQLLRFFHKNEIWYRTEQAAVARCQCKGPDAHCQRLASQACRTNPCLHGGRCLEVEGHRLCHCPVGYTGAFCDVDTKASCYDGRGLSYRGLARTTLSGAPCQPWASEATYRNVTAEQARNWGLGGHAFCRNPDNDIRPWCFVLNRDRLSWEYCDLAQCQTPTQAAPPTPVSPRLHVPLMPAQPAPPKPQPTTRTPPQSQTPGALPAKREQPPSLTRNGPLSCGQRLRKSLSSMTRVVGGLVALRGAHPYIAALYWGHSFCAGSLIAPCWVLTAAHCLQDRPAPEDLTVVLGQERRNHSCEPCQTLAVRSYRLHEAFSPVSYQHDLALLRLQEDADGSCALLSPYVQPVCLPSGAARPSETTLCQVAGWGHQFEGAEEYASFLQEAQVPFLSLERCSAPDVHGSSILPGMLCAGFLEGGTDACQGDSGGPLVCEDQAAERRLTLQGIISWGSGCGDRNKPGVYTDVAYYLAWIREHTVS

Aminopeptidase N = molecular target: T2, Aminopeptidase N (Plasmodium falciparum FcB1/Columbia, UniProt O96935); assay: P. falciparum M1AAP inhibitors, biochemical, fluorogenic H-Leu-NHMec substrate, 1536-well (AID 1445); parameters: species or system Plasmodium falciparum 3D7, 3D7
T2 sequence (O96935 whole entry): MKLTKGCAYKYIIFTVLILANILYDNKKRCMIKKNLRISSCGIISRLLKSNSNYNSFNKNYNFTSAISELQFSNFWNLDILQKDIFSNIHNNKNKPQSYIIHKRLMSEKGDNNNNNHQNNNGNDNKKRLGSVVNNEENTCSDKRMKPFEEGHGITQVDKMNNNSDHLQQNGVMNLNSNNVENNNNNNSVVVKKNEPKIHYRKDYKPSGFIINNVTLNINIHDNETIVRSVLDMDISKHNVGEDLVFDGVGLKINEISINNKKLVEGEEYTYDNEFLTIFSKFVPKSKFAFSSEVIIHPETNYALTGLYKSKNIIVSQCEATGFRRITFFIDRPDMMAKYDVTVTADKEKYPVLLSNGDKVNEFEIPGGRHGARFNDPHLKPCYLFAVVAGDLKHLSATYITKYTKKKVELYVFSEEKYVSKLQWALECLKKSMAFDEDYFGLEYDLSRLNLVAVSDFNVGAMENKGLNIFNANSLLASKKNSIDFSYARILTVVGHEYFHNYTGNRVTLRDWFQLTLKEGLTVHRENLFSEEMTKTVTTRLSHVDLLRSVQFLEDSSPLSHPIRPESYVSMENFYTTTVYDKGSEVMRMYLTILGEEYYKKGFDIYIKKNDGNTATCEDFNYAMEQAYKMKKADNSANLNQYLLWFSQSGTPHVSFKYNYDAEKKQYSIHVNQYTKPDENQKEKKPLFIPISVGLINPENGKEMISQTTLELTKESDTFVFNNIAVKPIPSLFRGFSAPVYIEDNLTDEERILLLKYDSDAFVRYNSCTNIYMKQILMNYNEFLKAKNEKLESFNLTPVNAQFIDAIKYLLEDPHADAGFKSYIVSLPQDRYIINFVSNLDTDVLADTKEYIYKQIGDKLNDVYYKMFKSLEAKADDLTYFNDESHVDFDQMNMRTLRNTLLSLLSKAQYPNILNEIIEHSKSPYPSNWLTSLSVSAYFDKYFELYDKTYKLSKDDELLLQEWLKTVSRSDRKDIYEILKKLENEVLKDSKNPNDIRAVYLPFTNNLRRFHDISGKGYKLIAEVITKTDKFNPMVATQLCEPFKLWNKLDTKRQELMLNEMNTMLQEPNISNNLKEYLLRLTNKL

[1] = molecular target: T3, Peroxisome proliferator-activated receptor gamma/Nuclear receptor coactivator 1 (Homo sapiens, UniProt P37231); assay: TR-FRET dose response biochemical High Throughput Screening assay for agonists of the steroid receptor coactivator 1 (SRC-1) recruitment by the peroxisome proliferator-activated receptor gamma (PPAR gamma): non-selective agonists. [Related pubchem assays (depositor defined):AID1300, AID1808, AID504735, AID631]; type: protein assay
T3 sequence (P37231 whole entry): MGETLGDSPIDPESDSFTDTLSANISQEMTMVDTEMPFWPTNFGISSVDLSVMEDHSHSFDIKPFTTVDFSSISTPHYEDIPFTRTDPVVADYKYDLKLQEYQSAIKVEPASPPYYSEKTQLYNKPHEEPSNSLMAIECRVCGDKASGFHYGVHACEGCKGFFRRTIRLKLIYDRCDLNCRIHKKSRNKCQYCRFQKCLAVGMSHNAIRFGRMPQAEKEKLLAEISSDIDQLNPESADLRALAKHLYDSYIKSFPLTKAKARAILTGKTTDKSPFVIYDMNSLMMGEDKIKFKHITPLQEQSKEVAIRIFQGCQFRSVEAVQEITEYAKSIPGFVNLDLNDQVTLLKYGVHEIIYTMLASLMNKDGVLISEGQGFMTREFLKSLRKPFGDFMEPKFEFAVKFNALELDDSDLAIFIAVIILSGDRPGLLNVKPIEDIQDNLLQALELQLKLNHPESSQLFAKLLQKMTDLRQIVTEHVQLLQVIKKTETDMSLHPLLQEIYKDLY
T3 sequence (Q15788 whole entry, further chain): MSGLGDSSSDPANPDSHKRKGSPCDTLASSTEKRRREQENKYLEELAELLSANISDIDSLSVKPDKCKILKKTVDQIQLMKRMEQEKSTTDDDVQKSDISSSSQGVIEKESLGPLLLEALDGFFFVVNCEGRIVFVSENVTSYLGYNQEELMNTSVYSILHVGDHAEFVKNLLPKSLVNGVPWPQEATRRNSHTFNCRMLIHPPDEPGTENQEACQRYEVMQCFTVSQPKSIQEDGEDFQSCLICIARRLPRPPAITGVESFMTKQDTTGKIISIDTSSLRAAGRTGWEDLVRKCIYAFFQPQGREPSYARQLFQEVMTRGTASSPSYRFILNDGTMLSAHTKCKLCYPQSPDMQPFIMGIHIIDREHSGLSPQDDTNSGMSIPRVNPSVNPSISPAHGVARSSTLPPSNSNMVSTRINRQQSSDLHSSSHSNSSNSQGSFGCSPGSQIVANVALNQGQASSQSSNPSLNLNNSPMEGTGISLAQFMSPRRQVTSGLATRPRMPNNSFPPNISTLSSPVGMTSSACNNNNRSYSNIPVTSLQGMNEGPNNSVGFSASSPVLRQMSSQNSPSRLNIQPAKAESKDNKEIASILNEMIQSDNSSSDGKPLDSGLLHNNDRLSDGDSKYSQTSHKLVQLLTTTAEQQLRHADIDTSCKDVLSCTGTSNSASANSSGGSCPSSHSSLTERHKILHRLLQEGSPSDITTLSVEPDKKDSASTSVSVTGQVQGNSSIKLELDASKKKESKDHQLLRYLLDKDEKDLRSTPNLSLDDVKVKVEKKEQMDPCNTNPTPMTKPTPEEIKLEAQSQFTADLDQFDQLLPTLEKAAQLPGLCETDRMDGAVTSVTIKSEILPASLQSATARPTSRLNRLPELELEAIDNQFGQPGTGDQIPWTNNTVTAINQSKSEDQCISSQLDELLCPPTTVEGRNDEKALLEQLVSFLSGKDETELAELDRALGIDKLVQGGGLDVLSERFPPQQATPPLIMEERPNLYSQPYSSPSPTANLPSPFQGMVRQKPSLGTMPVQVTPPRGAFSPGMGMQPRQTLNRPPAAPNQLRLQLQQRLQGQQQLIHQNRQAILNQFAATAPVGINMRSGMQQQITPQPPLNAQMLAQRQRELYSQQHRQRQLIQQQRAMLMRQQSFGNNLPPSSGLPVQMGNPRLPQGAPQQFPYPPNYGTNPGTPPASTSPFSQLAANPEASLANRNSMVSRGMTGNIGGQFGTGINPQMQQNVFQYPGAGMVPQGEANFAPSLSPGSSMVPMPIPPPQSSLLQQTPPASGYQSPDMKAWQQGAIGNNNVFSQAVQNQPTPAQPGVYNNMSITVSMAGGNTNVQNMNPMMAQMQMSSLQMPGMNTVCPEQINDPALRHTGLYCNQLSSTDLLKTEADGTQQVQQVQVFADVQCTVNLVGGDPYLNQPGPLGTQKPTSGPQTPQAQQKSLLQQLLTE

[2] = molecular target: T4, Peroxisome proliferator-activated receptor gamma/Nuclear receptor coactivator 2 (Homo sapiens, UniProt P37231); assay: TR-FRET dose response biochemical High Throughput Screening assay for agonists of the steroid receptor coactivator 2 (SRC-2) recruitment by the peroxisome proliferator-activated receptor gamma (PPAR gamma): non-selective agonists. [Related pubchem assays: 1297, 1032 ]; type: functional
[3] = molecular target: T5, Peroxisome proliferator-activated receptor gamma/Nuclear receptor coactivator 3 (Homo sapiens, UniProt P37231); assay: TR-FRET dose response biochemical High Throughput Screening assay for agonists of the steroid receptor coactivator 3 (SRC-3) recruitment by the peroxisome proliferator-activated receptor gamma (PPAR gamma): non-selective agonists. [Related pubchem assays: 1301 (Confirmation screen.), 1048 (Primary screen.)]; type: functional
[4] = molecular target: Eukaryotic translation initiation factor 4E (Mus musculus, UniProt P63073); assay: eIF4E–eIF4G protein interaction inhibitors, dose response, biochemical, TR-FRET (AID 855); type: functional;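 also: potency for disrupting eIF4E binding to eIF4GI seen as loss of FRET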
H9c2 = assay: cells; type: functional, cell-based; details: Rattus norvegicus, H9c2, Myocardium;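 also: confirmatory concentration-response retest of ultra-high-throughput screening hits for modulation of myocardial damage; cell death induced by hydrogen peroxide oxidative stress; compound pretreatment for 60 min then peroxide exposure for 2 h; potency is for protecting the cells against peroxide damage rather than for killing them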
[5] = inhibitors of SNCA 5'UTR-driven reporter translation, confirmation, H4 neuroglioma cells, luminescence (AID 1988); type: functional, cell-based
[6] = cytotoxicity in HEK-293T cells, dose response, cytotoxicity control for BCR NF-kB inhibitor project, luminescence, B-cell screen hits (AID 489021); type: functional, cell-based;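 also: HEK-293T cells carrying an NF-kB luciferase reporter; cells exposed to compound for about 14 hours before viability readout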
[7] = Luminescence Cell-Based Dose Response HTS to Identify Inhibitors of 5'UTR Stem-Loop Driven Prion Protein mRNA Translation in H4 Neuroglioblastoma Cells. [Related pubchem assays: 1827 (Project Summary), 1813 (Primary HTS)]; type: functional
[8] = inhibitors of firefly luciferase expression or activity, dose response, H4 neuroglioma cells, luminescence (AID 1990); type: functional, cell-based
[9] = molecular target: T6, RNA-binding protein pos-1 (Caenorhabditis elegans, UniProt G5EF15); assay: inhibitors of POS-1/mex-3 RNA binding, dose response, biochemical, fluorescence polarization (AID 1964);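 also: purified POS-1 fused to maltose binding protein made in E. coli; potency of compounds blocking POS-1 binding to fluorescent RNA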
T6 sequence (G5EF15 whole entry): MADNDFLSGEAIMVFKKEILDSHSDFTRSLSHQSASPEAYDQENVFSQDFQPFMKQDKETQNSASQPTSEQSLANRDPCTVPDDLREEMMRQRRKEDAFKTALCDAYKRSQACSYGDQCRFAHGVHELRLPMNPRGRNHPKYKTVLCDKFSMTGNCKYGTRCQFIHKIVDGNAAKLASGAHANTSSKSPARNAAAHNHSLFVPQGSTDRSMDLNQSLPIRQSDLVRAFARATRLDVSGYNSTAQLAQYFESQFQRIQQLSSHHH

HeLa = assay: HeLa cell cytotoxicity, dose response, cytotoxicity control, 24 h, cherry-picked samples (AID 504726); type: functional, cell-based; details: Homo sapiens;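 also: potency for cytotoxicity as loss of luminescence signal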
[10] = molecular target: T7, Zinc finger protein mex-5 (Caenorhabditis elegans, UniProt Q9XUB2); assay: MEX-5/TCR-2 RNA interaction inhibitors, dose response, biochemical, C. elegans, fluorescence polarization (AID 1960)
T7 sequence (Q9XUB2 whole entry): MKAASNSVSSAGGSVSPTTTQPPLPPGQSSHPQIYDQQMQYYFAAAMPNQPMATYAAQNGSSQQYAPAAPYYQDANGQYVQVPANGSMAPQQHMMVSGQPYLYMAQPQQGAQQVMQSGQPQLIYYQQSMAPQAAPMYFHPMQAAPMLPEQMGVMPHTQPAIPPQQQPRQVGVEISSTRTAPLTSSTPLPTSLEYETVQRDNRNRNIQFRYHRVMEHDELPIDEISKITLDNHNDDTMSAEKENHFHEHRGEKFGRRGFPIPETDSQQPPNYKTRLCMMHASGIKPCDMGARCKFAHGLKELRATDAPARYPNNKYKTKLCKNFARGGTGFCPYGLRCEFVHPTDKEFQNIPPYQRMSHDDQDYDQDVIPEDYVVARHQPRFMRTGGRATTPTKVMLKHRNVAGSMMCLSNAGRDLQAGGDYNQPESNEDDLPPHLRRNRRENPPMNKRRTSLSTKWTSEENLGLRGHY

[11] = molecular target: G-protein coupled receptor 55 (Homo sapiens, UniProt Q9Y2T6); assay: GPR55 agonists via beta-arrestin recruitment, primary screen, imaging, U2OS cells, beta-arrestin-GFP redistribution (AID 1961); type: functional
[12] = molecular target: T8, Voltage-gated N-type calcium channel alpha-1B subunit/Amyloid beta A4 precursor protein-binding family A member 1 (Homo sapiens, UniProt Q00975+Q02410); type: protein assay
T8 sequence (Q00975 whole entry): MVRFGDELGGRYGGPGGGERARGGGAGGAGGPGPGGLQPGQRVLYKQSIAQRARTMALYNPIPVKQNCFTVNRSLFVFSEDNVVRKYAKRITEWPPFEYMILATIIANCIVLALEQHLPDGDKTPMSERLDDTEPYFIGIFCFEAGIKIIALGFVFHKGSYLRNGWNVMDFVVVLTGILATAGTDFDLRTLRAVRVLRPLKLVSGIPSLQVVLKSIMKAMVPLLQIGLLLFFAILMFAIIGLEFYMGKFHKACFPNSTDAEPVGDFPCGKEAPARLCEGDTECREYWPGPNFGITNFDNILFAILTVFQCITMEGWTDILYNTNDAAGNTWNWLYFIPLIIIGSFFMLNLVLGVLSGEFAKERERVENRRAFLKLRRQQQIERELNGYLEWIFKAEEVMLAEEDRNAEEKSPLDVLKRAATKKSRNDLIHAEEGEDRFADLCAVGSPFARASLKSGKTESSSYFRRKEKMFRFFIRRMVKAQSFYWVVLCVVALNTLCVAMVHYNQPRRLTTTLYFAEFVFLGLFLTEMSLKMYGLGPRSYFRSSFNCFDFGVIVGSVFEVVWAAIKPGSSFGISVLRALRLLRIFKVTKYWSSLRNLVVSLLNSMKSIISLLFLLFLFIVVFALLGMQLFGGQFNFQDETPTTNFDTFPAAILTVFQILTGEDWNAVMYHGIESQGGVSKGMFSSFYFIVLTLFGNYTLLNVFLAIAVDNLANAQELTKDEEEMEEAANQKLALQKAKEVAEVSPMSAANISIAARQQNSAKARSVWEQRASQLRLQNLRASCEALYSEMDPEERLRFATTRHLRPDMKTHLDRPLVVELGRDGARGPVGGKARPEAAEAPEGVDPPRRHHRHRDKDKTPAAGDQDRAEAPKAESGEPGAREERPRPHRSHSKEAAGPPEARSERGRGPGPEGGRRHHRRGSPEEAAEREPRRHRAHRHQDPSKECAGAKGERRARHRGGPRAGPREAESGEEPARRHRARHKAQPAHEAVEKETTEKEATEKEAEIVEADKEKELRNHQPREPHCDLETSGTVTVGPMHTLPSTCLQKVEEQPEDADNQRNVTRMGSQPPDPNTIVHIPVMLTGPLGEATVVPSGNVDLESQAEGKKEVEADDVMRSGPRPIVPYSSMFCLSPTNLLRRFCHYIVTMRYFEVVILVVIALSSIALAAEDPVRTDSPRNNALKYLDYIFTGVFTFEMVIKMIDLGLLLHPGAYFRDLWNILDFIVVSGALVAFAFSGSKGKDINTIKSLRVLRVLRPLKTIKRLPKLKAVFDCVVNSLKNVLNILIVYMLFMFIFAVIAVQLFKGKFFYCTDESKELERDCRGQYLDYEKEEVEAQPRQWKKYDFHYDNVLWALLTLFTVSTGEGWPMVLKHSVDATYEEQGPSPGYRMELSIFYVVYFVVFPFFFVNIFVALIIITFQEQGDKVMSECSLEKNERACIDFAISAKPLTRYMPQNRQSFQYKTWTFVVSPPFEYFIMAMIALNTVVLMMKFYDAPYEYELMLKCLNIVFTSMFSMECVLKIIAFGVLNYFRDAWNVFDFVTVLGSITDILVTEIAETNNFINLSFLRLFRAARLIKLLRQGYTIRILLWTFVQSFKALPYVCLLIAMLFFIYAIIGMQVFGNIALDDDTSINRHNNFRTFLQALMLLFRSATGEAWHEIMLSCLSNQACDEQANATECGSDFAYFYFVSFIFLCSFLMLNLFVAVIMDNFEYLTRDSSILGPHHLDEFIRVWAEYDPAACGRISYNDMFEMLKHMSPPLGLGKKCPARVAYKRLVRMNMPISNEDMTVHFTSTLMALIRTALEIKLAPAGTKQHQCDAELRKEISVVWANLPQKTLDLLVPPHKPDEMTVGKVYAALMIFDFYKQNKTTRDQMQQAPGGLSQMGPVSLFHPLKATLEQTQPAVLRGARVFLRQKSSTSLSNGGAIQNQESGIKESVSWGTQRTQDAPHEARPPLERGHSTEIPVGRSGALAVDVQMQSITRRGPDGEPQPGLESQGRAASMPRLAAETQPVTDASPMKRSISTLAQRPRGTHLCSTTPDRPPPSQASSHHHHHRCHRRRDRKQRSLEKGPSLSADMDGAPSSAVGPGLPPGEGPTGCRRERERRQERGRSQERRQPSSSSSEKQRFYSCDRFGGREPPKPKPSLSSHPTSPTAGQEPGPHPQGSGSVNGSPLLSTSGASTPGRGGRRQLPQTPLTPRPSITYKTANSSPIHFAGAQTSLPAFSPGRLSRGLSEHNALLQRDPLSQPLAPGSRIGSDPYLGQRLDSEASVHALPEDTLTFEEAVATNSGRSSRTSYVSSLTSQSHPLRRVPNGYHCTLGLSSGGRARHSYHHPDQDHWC
T8 sequence (Q02410 whole entry): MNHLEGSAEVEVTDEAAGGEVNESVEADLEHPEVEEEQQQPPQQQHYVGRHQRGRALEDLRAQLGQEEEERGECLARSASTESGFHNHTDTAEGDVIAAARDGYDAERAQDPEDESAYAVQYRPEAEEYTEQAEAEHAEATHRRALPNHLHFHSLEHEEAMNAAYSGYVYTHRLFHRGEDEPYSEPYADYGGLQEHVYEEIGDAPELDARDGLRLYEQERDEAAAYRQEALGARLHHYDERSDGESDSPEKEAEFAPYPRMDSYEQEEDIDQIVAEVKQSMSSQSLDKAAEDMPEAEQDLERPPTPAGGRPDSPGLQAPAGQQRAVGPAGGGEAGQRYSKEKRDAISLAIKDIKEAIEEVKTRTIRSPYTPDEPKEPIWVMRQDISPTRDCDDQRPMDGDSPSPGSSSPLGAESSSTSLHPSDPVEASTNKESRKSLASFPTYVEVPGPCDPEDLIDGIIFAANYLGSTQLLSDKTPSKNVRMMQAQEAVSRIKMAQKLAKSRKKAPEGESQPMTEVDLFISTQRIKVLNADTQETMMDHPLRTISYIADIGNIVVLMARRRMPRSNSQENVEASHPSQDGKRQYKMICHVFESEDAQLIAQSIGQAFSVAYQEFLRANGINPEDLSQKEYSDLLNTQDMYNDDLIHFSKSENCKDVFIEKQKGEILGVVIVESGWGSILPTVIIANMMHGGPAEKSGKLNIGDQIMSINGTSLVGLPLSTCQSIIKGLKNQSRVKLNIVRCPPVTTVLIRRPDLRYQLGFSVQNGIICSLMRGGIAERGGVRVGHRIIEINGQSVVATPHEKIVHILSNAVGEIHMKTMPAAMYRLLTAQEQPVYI

[13] = molecular target: T8, Voltage-gated N-type calcium channel alpha-1B subunit/Amyloid beta A4 precursor protein-binding family A member 1; type: protein assay; remark: listed apart in the source
[14] = Luminescence Cell-Based Dose Response to Identify Activators of Luciferase Translation or Activity in H4-C Neuroglioblastoma Cells. [Related pubchem assays: 1829 (Project Summary), 1814 (Primary HTS)]; type: functional
[15] = HEp-2 cell cytotoxicity, dose response, cytotoxicity control for RSV inhibitor project, HTS (AID 2410); type: functional; details: human respiratory syncytial virus
[16] = molecular target: T5, Peroxisome proliferator-activated receptor gamma/Nuclear receptor coactivator 3; type: functional
[17] = Luminescence Cell-Based Dose Response to Identify Activators of 5'UTR Stem-Loop Driven Prion Protein mRNA Translation in H4-C Neuroglioblastoma Cells. [Related pubchem assays: 1829 (Project Summary), 1814 (Primary HTS)]; type: functional
H4 = assay: Luminescence Cell-Based Dose Response HTS to Identify Activators of 5'UTR Stem-Loop Driven Prion Protein mRNA Translation in H4 Neuroglioblastoma Cells. [Related pubchem assays: 1829 (Project Summary), 1814 (Primary HTS)]; type: functional; details: Homo sapiens
[18] = Luminescence Cell-Based Dose Confirmation to Identify Activators of 5'UTR Stem-Loop Driven Alpha-Synuclein mRNA Translation in H4 Neuroglioblastoma Cells. [Related pubchem assays: 1829 (Project Summary), 1814 (Primary HTS)]; type: functional
[19] = molecular target: T3, Peroxisome proliferator-activated receptor gamma/Nuclear receptor coactivator 1; type: functional
[20] = Luminescence Cell-Based Dose Response HTS to Identify Activators of Luciferase Translation or Activity in H4 […] Cells. [Related pubchem assays: 1829 (Project Summary), 1814 (Primary HTS)]; type: functional
[21] = molecular target: T4, Peroxisome proliferator-activated receptor gamma/Nuclear receptor coactivator 2; type: functional

CCOC(=O)c1cn(Cc2ccccc2)nn1
IC50 (Coagulation factor XII): > 50 µM (inactive)

O=C(/C=C/c1cccs1)NC(=S)Nc1ccc(C(=O)O)cc1
IC50 (Aminopeptidase N): 28.8 µM (active)

O=C(C1=C(O)C(=O)N(CCCN2CCOCC2)C1c1ccncc1)c1cc2ccccc2o1 (stereo not drawn)
EC50 [1]: > 79.4 µM (inactive) | EC50 [2]: > 79.4 µM (not active) | EC50 [3]: > 79.4 µM (not active)

Cc1ccccc1CSc1nncn1N
IC50 [4]: > 64 µM (inactive)

CCOC(=O)C1=NN(C(=O)c2cccc(Br)c2)C(O)(C(C)(C)C)C1 (stereo not drawn)
IC50 (Aminopeptidase N): 44 µM (active)

COc1cc(OC)cc(-c2cc3nc(C)c(CCC(=O)Nc4nc(C)cs4)c(C)n3n2)c1
IC50 (H9c2): > 79 µM (inactive) | EC50 [5]: 24.2 µM (active) | IC50 [6]: > 80 µM (inactive) | EC50 [7]: 13.2 µM (active) | EC50 [8]: 16.9 µM (active)

CCN1/C(=C2/SC(=S)N(NC(C)=O)C2=O)Sc2ccc(OC)cc21
EC50 [9]: > 300 µM (not active) | AC50 (HeLa): 122 µM (active) | EC50 [10]: > 300 µM (not active)

CCc1cccc(OCC(=O)Nc2cc(S(=O)(=O)N3CCOCC3)ccc2N2CCCC2)c1
EC50 [11]: 4.03 µM (active)

O=c1oc2c(CN3CCCCC3)c(O)ccc2c2c1CCCC2
IC50 (Aminopeptidase N): 65.3 µM (active)

COC(=O)c1ccc(OCC(O)CN2CCC(C)CC2)cc1 (stereo not drawn)
AC50 (HeLa): 124 µM (active)

O=C(CC1CCCCC1)NCC1CCCO1 (stereo not drawn)
IC50 [4]: > 64 µM (inactive)

COc1ccc(C(=O)NC(=S)Nc2ccc(NC(=O)c3ccco3)cc2)cc1[N+](=O)[O-]
IC50 [12]: > 50 µM (inactive) | IC50 [13]: 11.9 µM (active)

CCc1cc2c(=O)c(Oc3ccccc3F)c(C)oc2c(CN(C)C)c1O
IC50 [12]: > 50 µM (inactive) | IC50 [13]: 1.5 µM (active)

COc1ccc(CCNC(=O)Cn2cnc3c(cnn3-c3ccccc3Cl)c2=O)cc1OC
IC50 [4]: > 64 µM (inactive)

COC(=O)c1ccc(C2C(C(=O)c3cc4ccccc4o3)=C(O)C(=O)N2CCCN(C)C)cc1 (stereo not drawn)
EC50 [1]: > 79.4 µM (inactive) | EC50 [2]: 51.9 µM (not active) | EC50 [3]: > 79.4 µM (not active)

Cc1cc(/C=C2/C(=O)N(C)C(=S)N2C)c(C)n1C1CC1
EC50 [14]: 0.337 µM (active) | CC50 [15]: 40.7 µM (active) | EC50 [16]: > 79.4 µM (not active) | EC50 [17]: 0.297 µM (active) | EC50 (H4): > 120 µM (not active) | EC50 [18]: 0.343 µM (active) | EC50 [19]: > 79.4 µM (not active) | EC50 [20]: < 0.1 µM (inconclusive) | EC50 [21]: > 79.4 µM (not active)

CN1CCN(c2ncnc(Cl)c2N)CC1
IC50 (Coagulation factor XII): > 50 µM (inactive)

O=C(O/N=C(\c1ccccc1)c1ccccn1)c1cccc2ccccc12
EC50 [11]: > 32 µM (inactive)
